The record followed here is patent publication US11827628B2, “Compositions and methods for inhibition of the JAK pathway” (Rigel Pharmaceuticals, Inc., priority 2005, dated 2023).

pIC50: −log10 of the molar value.

For one test, the system named is Primary human T-cells. Kind of test: Primary Human T-Cell Proliferation Assay Stimulated with IL-2 (CellTiter-Glo). It is filed as cell-based. Conditions: Homo sapiens, T-cell, primary human T-cell proliferation stimulated with IL-2; read-out: IC50, Example 42. The method, boiled down:
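Peripheral blood T-cells pre-activated with anti-CD3/anti-CD28 and IL-2 were washed free of IL-2, then cultured with compound plus IL-2 for 72 hours at 37° C, duplicate wells. Viability read as ATP by CellTiter-Glo luminescence; IC50 reported.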
In general terms: Cellular ATP, detected with luciferase, serves as a proxy for viable cell number.
As for `CNC(=O)COc1ccc(Nc2nc(Nc3cccc(S(N)(=O)=O)c3)ncc2C)cc1F` [Compound I-155, N2-(3-Aminosulfonylphenyl)-N4-(3-fluoro-4-methylaminocarbonylmethoxyphenyl)-5-methyl-2,4-pyrimidinediamine], the negative-log IC50 (pIC50) (commonly the negative decadic logarithm of the IC50, by convention in mol/L) was 7.00.

With `CNC(=O)COc1ccc(Nc2nc(Nc3ccc(C)c(S(N)(=O)=O)c3)ncc2C)cc1F` [Compound I-156, N2-(3-Aminosulfonyl-4-methylphenyl)-N4-(3-fluoro-4-methylaminocarbonylmethoxyphenyl)-5-methyl-2,4-pyrimidinediamine], the negative-log IC50 (pIC50) was 6.85.

As to `C=CCNC(=O)COc1ccc(Nc2nc(Nc3cccc(S(N)(=O)=O)c3)ncc2F)cc1` [Compound I-158, N4-(4-Allylaminocarbonylmethoxyphenyl)-N2-(3-aminosulfonylphenyl)-5-fluoro-2,4-pyrimidinediamine], the negative logarithm of the IC50 (pIC50) is 6.35.

As to `C=CCNC(=O)COc1ccc(Nc2nc(Nc3ccc(C)c(S(N)(=O)=O)c3)ncc2F)cc1` [Compound I-159, N4-(4-Allylaminocarbonylmethoxyphenyl)-N2-(3-aminosulfonyl-4-methylphenyl)-5-fluoro-2,4-pyrimidinediamine], the pIC50 was 6.27.

For `Cc1ccc(Nc2ncc(F)c(Nc3ccc(OCc4cccnc4)cc3)n2)cc1S(N)(=O)=O` [Compound I-178, N2-(3-Aminosulfonyl-4-methylphenyl)-5-fluoro-N4-[4-(3-pyridylmethoxy)phenyl]-2,4-pyrimidinediamine], the pIC50 is 7.53.

Take `Cc1ccc(Nc2nc(Nc3ccc(C)c(S(N)(=O)=O)c3)ncc2F)cc1OCCN1CCOCC1` [Compound I-204, N2-(3-Aminosulfonyl-4-methylphenyl)-5-fluoro-N4-[4-methyl-3-(2-morpholinoethyloxy)phenyl]2,4-pyrimidinediamine]: the pIC50 is 5.78.

Turning to `Cc1nnc(COc2ccc(Nc3nc(Nc4ccc(C)c(S(N)(=O)=O)c4)ncc3F)cc2)o1` [Compound I-279, N2-(3-Aminosulfonyl-4-methylphenyl)-5-fluoro-N4-[4-(5-methyl-1,3,4-oxadiazol-2-yl)methoxyphenyl]-2,4-pyrimidinediamine], the pIC50 was 6.78.

As for `Cc1ccc(Nc2ncc(F)c(Nc3cccc(OC4CCN(C)CC4)c3)n2)cc1S(N)(=O)=O` [II-2, N2-(3-Aminosulfonyl-4-methylphenyl)-5-fluoro-N4-{3-[(1-methylpiperidin-4-yl)oxy]phenyl}-2,4-pyrimidinediamine], the pIC50 was 5.82.

For the molecule `Cc1ccc(Nc2ncc(F)c(Nc3ccc(OC4CCN(C)CC4)c(C(F)(F)F)c3)n2)cc1S(N)(=O)=O` [II-6, N2-(3-Aminosulfonyl-4-methylphenyl)-5-fluoro-N4-{4-[(1-methylpiperidin-4-yl)oxy]-3-trifluoromethylphenyl}-2,4-pyrimidinediamine], the pIC50 is 5.91.

Consider `Cc1ccc(Nc2ncc(F)c(Nc3ccc(OC4CCN(C)CC4)cc3)n2)cc1S(N)(=O)=O` [II-7, N2-(3-Aminosulfonyl-4-methylphenyl)-5-fluoro-N4-{4-[(1-methylpiperidin-4-yl)oxy]phenyl}-2,4-pyrimidinediamine], for which the negative logarithm of the IC50 (pIC50) is 6.28.

On to `NS(=O)(=O)c1cccc(Nc2ncc(F)c(Nc3ccc(Oc4cccnc4)cc3)n2)c1` [II-11, N2-(3-Aminosulfonylphenyl)-5-fluoro-N4-[4-(3-pyridyloxy)phenyl]-2,4-pyrimidinediamine], for which the negative-log IC50 (pIC50) was 6.70.

Turning to `Cc1ccc(Nc2ncc(F)c(Nc3ccc(CCC#N)c(F)c3)n2)cc1S(N)(=O)=O` [III-17, N2-(3-Aminosulfonyl-4-methylphenyl)-5-fluoro-N4-[4-(2-cyanoethyl)-3-fluorophenyl]-2,4-pyrimidinediamine], the pIC50 was 6.70.

For `N#CCCc1ccc(Nc2nc(Nc3cccc(S(N)(=O)=O)c3)ncc2F)cc1F` [III-18, N2-(3-Aminosulfonylphenyl)-N4-[4-(2-cyanoethyl)-3-fluorophenyl]-5-fluoro-2,4-pyrimidinediamine], the pIC50 was 6.87.

With `Cc1ccc(Nc2ncc(F)c(Nc3ccc(CCC#N)c(Cl)c3)n2)cc1S(N)(=O)=O` [III-21, N2-(3-Aminosulfonyl-4-methylphenyl)-N4-[3-chloro-4-(2-cyanoethyl)phenyl]-5-fluoro-2,4-pyrimidinediamine], the negative-log IC50 (pIC50) is 6.94.

For `N#CCCc1ccc(Nc2nc(Nc3cccc(S(N)(=O)=O)c3)ncc2F)cc1Cl` [III-22, N2-(3-Aminosulfonylphenyl)-N4-[3-chloro-4-(2-cyanoethyl)phenyl]-5-fluoro-2,4-pyrimidinediamine], the pIC50 is 7.12.

Consider `Cc1ccc(Nc2ncc(F)c(Nc3ccc(CCOC(N)=O)cc3)n2)cc1S(N)(=O)=O` [III-53, N4-{4-[2-(Aminocarbonyloxy)ethyl]phenyl}-N2-(3-aminosulfonyl-4-methylphenyl)-5-fluoro-2,4-pyrimidinediamine], for which the pIC50 is 6.54.

Take `NC(=O)OCCc1ccc(Nc2nc(Nc3cccc(S(N)(=O)=O)c3)ncc2F)cc1` [III-54, N4-{4-[2-(Aminocarbonyloxy)ethyl]phenyl}-N2-(3-aminosulfonylphenyl)-5-fluoro-2,4-pyrimidinediamine]: the negative-log IC50 (pIC50) was 6.85.

As for `COc1ccc(Nc2ncc(F)c(Nc3ccc(Cc4ccncc4)cc3)n2)cc1S(N)(=O)=O` [III-66, N2-(3-Aminosulfonyl-4-methoxyphenyl)-5-fluoro-N4-[4-(4-pyridinylmethyl)phenyl]-2,4-pyrimidinediamine], the pIC50 was 5.94.

On to `Cc1ccc(Nc2ncc(F)c(Nc3ccc(Cc4ccncc4)cc3)n2)cc1S(N)(=O)=O` [III-74, N2-(3-Aminosulfonyl-4-methylphenyl)-5-fluoro-N4-[4-(4-pyridinylmethyl)phenyl]-2,4-pyrimidinediamine], for which the pIC50 is 6.76.

Consider `NS(=O)(=O)c1cccc(Nc2ncc(F)c(NCCc3ccc(-c4ccncc4)cc3)n2)c1` [III-76, N2-(3-Aminosulfonylphenyl)-5-fluoro-N4-[4-(4-pyridinyl)phenethyl]-2,4-pyrimidinediamine], for which the negative logarithm of the IC50 (pIC50) is 6.87.

In the case of `Cc1ccc(Nc2ncc(F)c(NCCc3ccc(-c4ccncc4)cc3)n2)cc1S(N)(=O)=O` [III-77, N2-(3-Aminosulfonyl-4-methylphenyl)-5-fluoro-N4-[4-(4-pyridinyl)phenethyl]-2,4-pyrimidinediamine], the pIC50 is 6.68.

Still in this test, the particulars now being: primary human T-cells stimulated with IL-2, proliferation; read-out: IC50, Example 42.
With `Cc1ccc(Nc2ncc(F)c(Nc3cnc4c(c3)OC(C)(C)C(=O)N4CC#N)n2)cc1S(N)(=O)=O` [Compound V-14, N2-(3-Aminosulfonyl-4-methylphenyl)-N4-[2,2-dimethyl-3-oxo-4-cyanomethyl-5-pyrid[1,4]oxazin-7-yl]-5-fluoro-2,4-pyrimidinediamine], the pIC50 was 5.59.

For `NS(=O)(=O)c1cccc(Nc2ncc(F)c(Nc3ccc(Cn4cncn4)cc3)n2)c1` [III-100, N2-(3-Aminosulfonylphenyl)-5-fluoro-N4-{4-[1-(1,2,4-thazolyl)methyl]phenyl}-2,4-pyrimidinediamine], the pIC50 was 6.71.

On to `NS(=O)(=O)c1cccc(Nc2ncc(F)c(Nc3ccc(CN4CCOCC4)cc3)n2)c1` [III-103, N2-(3-Aminosulfonylphenyl)-5-fluoro-N4-(4-N-morpholinomethylenephenyl)-2,4-pyrimidinediamine], for which the pIC50 is 5.97.

For the molecule `Cc1ccc(Nc2ncc(F)c(Nc3ccc(CN4CCOCC4)cc3)n2)cc1S(N)(=O)=O` [III-104, N2-(3-Aminosulfonyl-4-methylphenyl)-5-fluoro-N4-(4-N-morpholinomethylenephenyl)-2,4-pyrimidinediamine], the negative logarithm of the IC50 (pIC50) is 5.92.

`COc1ccc(Nc2ncc(F)c(Nc3ccc(CN4CCSCC4)cc3)n2)cc1S(N)(=O)=O` [III-109, N2-(3-Aminosulfonyl-4-methyoxyphenyl)-5-fluoro-N4-(4-thiomorpholinomethylenephenyl)-2,4-pyrimidinediamine]: the pIC50 is 6.60.

For the molecule `NS(=O)(=O)c1cccc(Nc2ncc(F)c(Nc3ccc(CN4CCS(=O)(=O)CC4)cc3)n2)c1` [III-110, N2-(3-Aminosulfonylphenyl)-5-fluoro-N4-{4-[(1,1-dioxothiomorpholin-4-yl-)methyl]phenyl}-2,4-pyrimidinediamine], the pIC50 is 6.00.

Consider `Cc1ccc(Nc2ncc(F)c(Nc3ccc(CN4CCS(=O)(=O)CC4)cc3)n2)cc1S(N)(=O)=O` [III-111, N2-(3-Aminosulfonyl-4-methylphenyl)-5-fluoro-N4-{4-[(1,1-dioxothiomorpholin-4-yl-)methyl]phenyl}-2,4-pyrimidinediamine], for which the negative logarithm of the IC50 (pIC50) is 6.03.

Take `CNS(=O)(=O)c1cc(Nc2ncc(F)c(Nc3cccc(-c4cnco4)c3)n2)ccc1C` [IV-4, 5-Fluoro-N2-[3-(N-methylaminosulfony)-4-methylphenyl]-N4-[3-(1,3-oxazol-5-yl)phenyl]-2,4-pyrimidinediamine]: the negative logarithm of the IC50 (pIC50) is 6.52.

In the case of `CNS(=O)(=O)c1cc(Nc2ncc(F)c(Nc3ccc(-c4cnco4)cc3)n2)ccc1C` [IV-7, 5-Fluoro-N2-[3-(N-methylaminosulfony)-4-methylphenyl]-N4-[4-(1,3-oxazol-5-yl)phenyl]-2,4-pyrimidinediamine], the pIC50 is 6.69.

The subject of a further test is up-regulation of ICAM-1 (CD54) by IFNγ in A549 lung epithelial cells. Put plainly: A549 Epithelial Line Stimulated with IFNγ (ICAM-1 surface expression, FACS). It is filed as cell-based, human. Conditions: Homo sapiens, A549, A549 epithelial line stimulated with IFNγ; ICAM-1 expression by FACS; read-out: IC50, Example 43. The essentials:
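A549 cells pre-incubated 1 h with compound (30 μM to 14 nM, 5% FBS, 0.3% DMSO), then stimulated with IFNγ (75 ng/mL) for 24 h. Surface ICAM-1 stained with APC anti-CD54 and read by flow cytometry; geometric mean of live-gated events plotted against concentration for EC50.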
A general note: Flow cytometry measures light scatter and fluorescence of single cells or particles in a stream.
Regarding `NC(=O)COc1ccc(Nc2nc(Nc3cccc(S(N)(=O)=O)c3)ncc2F)cc1Cl` [Compound I-98, N4-(4-Aminocarbonylmethoxy-3-chlorophenyl)-N2-(3-aminosulfonylphenyl)-5-fluoro-2,4-pyrimidinediamine], the negative-log IC50 (pIC50) was 4.43.

On to `NC(=O)COc1ccc(Nc2nc(Nc3cccc(S(N)(=O)=O)c3)ncc2F)cc1F` [Compound I-101, N4-(4-Aminocarbonylmethoxy-3-fluorophenyl)-N2-(3-aminosulfonylphenyl)-5-fluoro-2,4-pyrimidinediamine], for which the pIC50 is 4.29.
